This is an account of results in paper PMC7265639, “Freshwater viral metagenome reveals novel and functional phage-borne antibiotic resistance genes” (Microbiome, 2020).

Structures are written as SMILES. ≈ marks a conversion by molar mass, not a printed value.

Assay [1] concerns T1, E. coli BL21 (DE3)-pET-28a(+)-HRVM-1.
T1 construct: BL21 (DE3) pET-28a(+)/blaHRVM-1-His6 transformant expressing HRVM-1 metallo-beta-lactamase
In words: microbe, parasite or virus in culture. The note with it: Escherichia coli, read-out: MIC (μg/mL) for E. coli strain / E. coli BL21 (DE3)-pET-28a(+)-HRVM-1. Set-up: species or system Escherichia coli BL21 (DE3) transformants; agar dilution MIC on Mueller-Hinton agar with 1 mM IPTG. As to the method: (§1) When cultures of the cloned E. coli BL21 (DE3) cells reached approximately 0.6 at OD600, 1 mM isopropyl β-D-1-thiogalactopyranoside was added to induce expression of the blaHRV-1 or blaHRVM-1 gene followed by culture at 16 °C for 16 h. Susceptibility to benzylpenicillin, ampicillin, piperacillin, ticarcillin, oxacillin, cloxacillin, cephalothin, cefoxitin, cefotaxime, ceftazidime, cefepime, aztreonam, meropenem, imipenem (Sigma-Aldrich), and ertapenem (Merck & Co., Inc, Kenilworth, NJ, USA) against cloned E. coli BL21 (DE3) was assessed using the agar dilution technique in Mueller-Hinton agar (Difco Laboratories Inc., Detroit, MI, USA) including 1 mM IPTG with an inoculum of 10^5 CFU per spot. The PCR products were double-digested with NdeI and XhoI for the HRV-1 and NcoI and XhoI for the HRVM-1, and the digested DNAs were cloned into corresponding restriction enzyme-digested pET-28a(+) or pET-30a(+) vectors (Novagen, Madison, WI, USA). Recombinant plasmids [pET-30a(+)/blaHRV-1-His6 and pET-28a(+)/blaHRVM-1-His6] were transformed into E. coli BL21 (DE3) (Invitrogen, Carlsbad, CA, USA).

In assay [2] the test system is T2, E. coli BL21 (DE3)-pET-30a(+)-HRV-1.
T2 construct: BL21 (DE3) pET-30a(+)/blaHRV-1-His6 transformant expressing HRV-1 beta-lactamase
The assay can be described thus: microbe, parasite or virus in culture. The note with it: Escherichia coli, HRV1, read-out: MIC (μg/mL) for E. coli strain / E. coli BL21 (DE3)-pET-30a(+)-HRV-1. More on the design: species or system Escherichia coli BL21 (DE3) transformants; agar dilution MIC on Mueller-Hinton agar with 1 mM IPTG. The protocol:
as §1

Assay [3] deals with T3, HRV-1.
T3 construct: gene blaHRV-1; expressed in E. coli BL21(DE3) from pET-30a(+)/blaHRV-1-His6 (NdeI/XhoI); His6 tag removal by enterokinase stated; purified
In words: UV spectrophotometric beta-lactam hydrolysis, steady-state kinetics. The note with it: 10 mM MES pH 6.8, 30 °C, 20 μg/mL BSA. It is filed as biochemical.

Assay [4] deals with T4, HRVM-1.
T4 construct: gene blaHRVM-1; expressed in E. coli BL21(DE3) from pET-28a(+)/blaHRVM-1-His6 (NcoI/XhoI); His6 tag removal by enterokinase stated; purified
The assay is described as above. It is filed as biochemical. The note with it: 50 mM MES pH 7.0, 100 μM ZnCl2, 100 μg/mL BSA, 30 °C. From the text:
UV spectrophotometric beta-lactam hydrolysis, steady-state kinetics on HRVM-1 | the kcat/km of HRVM-1 for imipenem

Take `CC1(C)S[C@@H]2[C@H](NC(=O)[C@H](N)c3ccccc3)C(=O)N2[C@H]1C(=O)O` [Ampicillin]: the MIC in assay [1] is 32 µg/mL (≈ 91.6 µM); in assay [2], 64 µg/mL (≈ 183 µM).

`C[C@H]1[C@H](NC(=O)/C(=N\OC(C)(C)C(=O)O)c2csc(N)n2)C(=O)N1S(=O)(=O)O` [Aztreonam]: the MIC in assay [1] and in assay [2] was 8 µg/mL (≈ 18.4 µM) in each case.

For `CC1(C)S[C@@H]2[C@H](NC(=O)Cc3ccccc3)C(=O)N2[C@H]1C(=O)O` [Benzylpenicillin], the MIC in assay [1] worked out at 256 µg/mL (≈ 766 µM); in assay [2] it was 512 µg/mL (≈ 1530 µM).

Turning to `CO/N=C(\C(=O)N[C@@H]1C(=O)N2C(C(=O)[O-])=C(C[N+]3(C)CCCC3)CS[C@H]12)c1csc(N)n1` [Cefepime], the MIC in assay [1] and in assay [2] was 4 µg/mL (≈ 8.32 µM) each time.

For `CO[C@@]1(NC(=O)Cc2cccs2)C(=O)N2C(C(=O)O)=C(COC(N)=O)CS[C@@H]21` [Cefoxitin], the MIC in assay [1] and in assay [2] was 4 µg/mL (≈ 9.36 µM) in each case.

As to `CC(=O)OCC1=C(C(=O)O)N2C(=O)[C@@H](NC(=O)Cc3cccs3)[C@H]2SC1` [Cephalothin], the MIC in assay [1] and in assay [2] was 32 µg/mL (≈ 80.7 µM) each time.

For the compound `Cc1onc(-c2ccccc2Cl)c1C(=O)N[C@@H]1C(=O)N2[C@@H]1SC(C)(C)[C@@H]2C(=O)O` [Cloxacillin], the MIC in assay [1] turned out to be 128 µg/mL (≈ 294 µM); in assay [2], 256 µg/mL (≈ 587 µM).

With `C[C@@H](O)[C@H]1C(=O)N2C(C(=O)O)=C(S[C@@H]3CN[C@H](C(=O)Nc4cccc(C(=O)O)c4)C3)[C@H](C)[C@H]12` [Ertapenem], the MIC in assay [1] and in assay [2] was 0.5 µg/mL (≈ 1.05 µM) each time.

In the case of `C[C@@H](O)[C@H]1C(=O)N2C(C(=O)O)=C(S[C@@H]3CN[C@H](C(=O)N(C)C)C3)[C@H](C)[C@H]12` [Meropenem], the MIC in assay [1] and in assay [2] was 0.5 µg/mL (≈ 1.3 µM) each time.

On to `Cc1onc(-c2ccccc2)c1C(=O)N[C@@H]1C(=O)N2[C@@H]1SC(C)(C)[C@@H]2C(=O)O` [Oxacillin], for which the MIC in assay [1] was 128 µg/mL (≈ 319 µM); in assay [2], 256 µg/mL (≈ 638 µM).

Turning to `CCN1CCN(C(=O)N[C@@H](C(=O)N[C@@H]2C(=O)N3[C@@H]2SC(C)(C)[C@@H]3C(=O)O)c2ccccc2)C(=O)C1=O` [Piperacillin], the MIC in assay [1] stood at 32 µg/mL (≈ 61.8 µM); in assay [2], 64 µg/mL (≈ 124 µM).

On to `CC1(C)S[C@@H]2[C@H](NC(=O)[C@H](C(=O)O)c3ccsc3)C(=O)N2[C@H]1C(=O)O` [Ticarcillin], for which the MIC in assay [1] and in assay [2] was 32 µg/mL (≈ 83.2 µM) throughout.

Consider `CO/N=C(\C(=O)N[C@@H]1C(=O)N2C(C(=O)O)=C(COC(C)=O)CS[C@H]12)c1csc(N)n1` [cefotaxime], for which the Km in assay [3] is 11.74 ± 0.01 µM. Moreover, the MIC in assay [1] and in assay [2] was 8 µg/mL (≈ 17.6 µM) throughout.

For `CC(C)(O/N=C(\C(=O)N[C@@H]1C(=O)N2C(C(=O)[O-])=C(C[n+]3ccccc3)CS[C@H]12)c1csc(N)n1)C(=O)O` [ceftazidime], in assay [3], the Km is 12.15 ± 0.02 µM. Further, the MIC in assay [1] and in assay [2] was 8 µg/mL (≈ 14.6 µM) in each case.

On to `C[C@@H](O)[C@H]1C(=O)N2C(C(=O)O)=C(SCCN=CN)C[C@H]12` [imipenem], for which, in assay [4], the Km came out at 5.42 ± 0.01 µM. In addition, the MIC in assay [1] and in assay [2] was 0.5 µg/mL (≈ 1.67 µM) in each case.

As a reminder, the Km is the concentration of substrate that gives half-maximal velocity.
